# Assay: Metabolic stability test (microsomal metabolism test)
# Type: in vitro ADME
# Conditions: pH 7.4; human-derived liver microsomes, test compound remaining after addition of NADP+ and incubation at 37°C for 30 minutes; read-out: metabolic stability of T/C%
# Protocol: (Test Example 3 Metabolic stability test) 100 µL of 100 mM phosphate buffer solution (pH 7.4) containing 3 µM test compound was added to 100 µL of reaction solution containing 100 mM phosphate buffer solution (pH 7.4), 30 mM glucose 6-phosphate, 10 mM MgCl2·6H2O, 3 units/mL glucose 6-phosphate 1-dehydrogenase, and 0.3 to 1.5 mgP/mL human liver microsomes and the mixture was incubated at 37°C for 20 minutes. Then, 70 µL of 100 mM phosphate buffer solution (pH 7.4) containing 3 mM NADP^+ was added and the mixture was incubated at 37°C for 30 minutes to conduct a microsomal metabolism test. The metabolic stability was calculated according to the following formula: T/C (%) = ((concentration of test compound after addition of NADP)^+and incubation for30minutes)/((concentration of test compound before addition of NADP)^+) × 100. [formula] […]
row,Compound,remaining at 0.5 h [%]
1,"CC(C)C1=C(C(=O)N2[C@@H]3C[C@@H]3C[C@H]2C(=O)N2CC3(CC3)NC[C@@H]2C)SC2=N[C@@](C)(c3ccc(Cl)nc3)[C@@H](c3ccc(Cl)c(F)c3)N21 [Example 70, (6S)-7-{[(1R,3S,5R)-2-{[(5R,6S)-5-(4-chloro-3-fluorophenyl)-6-(6-chloropyridin-3-yl)-3-isopropyl-6-methyl-5,6-dihydroimidazo[2,1-b][1,3]thiazol-2-yl]carbonyl}-2-azabicyclo[3.1.0]hex-3-yl]carbonyl}-6-methyl-4,7-diazaspiro[2.5]octane]",≥ 50
2,"CC[C@H]1CNC2(CC2)CN1C(=O)[C@@H]1CC[C@@H](C)N1C(=O)C1=C(C(C)C)N2C(=N[C@@](C)(c3ccc(Cl)nc3)[C@H]2c2ccc(Cl)c(F)c2)S1 [Example 58, (6S)-7-[(5R)-1-{[(5R,6S)-5-(4-chloro-3-fluorophenyl)-6-(6-chloropyridin-3-yl)-3-isopropyl-6-methyl-5,6-dihydroimidazo[2,1-b][1,3]thiazol-2-yl]carbonyl}-5-methyl-L-prolyl]-6-ethyl-4,7-diazaspiro[2.5]octane]",≥ 50
3,"CO[C@@H]1C[C@@H](C(=O)N2CC3(CC3)NC[C@@H]2C)N(C(=O)C2=C(C(C)C)N3C(=N[C@@](C)(c4ccc(Cl)nc4)[C@H]3c3ccc(Cl)c(F)c3)S2)C1 [Example 63, (6S)-7-[(4R)-1-{[(5R,6S)-5-(4-chloro-3-fluorophenyl)-6-(6-chloropyridin-3-yl)-3-isopropyl-6-methyl-5,6-dihydroimidazo[2,1-b][1,3]thiazol-2-yl]carbonyl}-4-methoxy-L-prolyl]-6-methyl-4,7-diazaspiro[2.5]octane]",≥ 50
4,"CC(C)C1=C(C(=O)N2[C@H](C)CC[C@H]2C(=O)N2CCNC3(CC3)C2)SC2=N[C@@](C)(c3ccc(C#N)cc3)[C@@H](c3ccc(Cl)cc3)N21 [Example 28, 4-[(5R,6S)-5-(4-chlorophenyl)-2-{[(2S,5R)-2-(4,7-diazaspiro[2.5]oct-7-ylcarbonyl)-5-methylpyrrolidin-1-yl]carbonyl}-3-isopropyl-6-methyl-5,6-dihydroimidazo[2,1-b][1,3]thiazol-6-yl]benzonitrile]",≥ 50
5,"CC(C)C1=C(C(=O)N2[C@H](C)CC[C@H]2C(=O)N2CCN(CCO)C3(CC3)C2)SC2=N[C@@](C)(c3ccc(Cl)nc3)[C@@H](c3ccc(Cl)cc3)N21 [Example 10, 2-{7-[(5R)-1-{[(5R,6S)-5-(4-chlorophenyl)-6-(6-chloropyridin-3-yl)-3-isopropyl-6-methyl-5,6-dihydroimidazo[2,1-b][1,3]thiazol-2-yl]carbonyl}-5-methyl-L-prolyl]-4,7-diazaspiro[2.5]oct-4-yl}ethanol]",≥ 50
6,"CC(C)C1=C(C(=O)N2[C@H](C)CC[C@H]2C(=O)N2C[C@H](C)NC3(CC3)C2)SC2=N[C@@](C)(c3ccc(Cl)nc3)[C@@H](c3ccc(Cl)c(F)c3)N21 [Example 19, (5S)-7-[(5R)-1-([(5R,6S)-5-(4-chloro-3-fluorophenyl)-6-(6-chloropyridin-3-yl)-3-isopropyl-6-methyl-5,6-dihydroimidazo[2,1-b][1,3]thiazol-2-yl]carbonyl}-5-methyl-L-prolyl]-5-methyl-4,7-diazaspiro[2.5]octane]",≥ 50
7,"CC(C)C1=C(C(=O)N2CCC[C@H]2C(=O)N2CC3(CC3)NC[C@@H]2C)SC2=N[C@@](C)(c3ccc(Cl)nc3)[C@@H](c3ccc(Cl)c(F)c3)N21 [Example 57, (6S)-7-(1-{[(5R,6S)-5-(4-chloro-3-fluorophenyl)-6-(6-chloropyridin-3-yl)-3-isopropyl-6-methyl-5,6-dihydroimidazo[2,1-b][1,3]thiazol-2-yl]carbonyl}-L-prolyl)-6-methyl-4,7-diazaspiro[2.5]octane]",≥ 50
8,"CC(C)C1=C(C(=O)N2[C@H](C)CC[C@H]2C(=O)N2CC3(CC3)NC[C@H]2C)SC2=N[C@@](C)(c3ccc(Cl)nc3)[C@@H](c3ccc(Cl)c(F)c3)N21 [Example 23, (6R)-7-[(5R)-1-{ [(5R,6S)-5-(4-chloro-3-fluorophenyl)-6-(6-chloropyridin-3-yl)-3-isopropyl-6-methyl-5,6-dihydroimidazo[2,1-b][1,3]thiazol-2-yl]carbonyl}-5-methyl-L-prolyl]-6-methyl-4,7-diazaspiro[2.5]octane]",≥ 50
9,"CC(C)C1=C(C(=O)N2[C@H](CF)CC[C@H]2C(=O)N2CCN(C)C3(CC3)C2)SC2=N[C@@](C)(c3ccc(Cl)nc3)[C@@H](c3ccc(Cl)c(F)c3)N21 [Example 41, 7-[(5S)-1-{[(5R,6S)-5-(4-chloro-3-fluorophenyl)-6-(6-chloropyridin-3-yl)-3-isopropyl-6-methyl-5,6-dihydroimidazo[2,1-b][1,3]thiazol-2-yl]carbonyl}-5-(fluoromethyl)-L-prolyl]-4-methyl-4,7-diazaspiro[2.5]octane]",≥ 50
10,"CC(=O)N1CCN(C(=O)[C@@H]2CCC(=O)N2C(=O)C2=C(C(C)C)N3C(=N[C@@](C)(c4ccc(Cl)nc4)[C@H]3c3ccc(Cl)c(F)c3)S2)CC12CC2 [Example 45, (5S)-5-[(4-acetyl-4,7-diazaspiro[2.5]oct-7-yl)carbonyl]-1-{[(5R,6S)-5-(4-chloro-3-fluorophenyl)-6-(6-chloropyridin-3-yl)-3-isopropyl-6-methyl-5,6-dihydroimidazo[2,1-b][1,3]thiazol-2-yl]carbonyl}pyrrolidin-2-one]",≥ 50
11,"CC(C)C1=C(C(=O)N2[C@H](CF)CC[C@H]2C(=O)N2CCN(C)C3(CC3)C2)SC2=N[C@@](C)(c3ccc(Cl)cc3)[C@@H](c3ccc(Cl)cc3)N21 [Example 39, 7-[(5S)-1-{[(5R,6S)-5,6-bis(4-chlorophenyl)-3-isopropyl-6-methyl-5,6-dihydroimidazo[2,1-b][1,3]thiazol-2-yl]carbonyl}-5-(fluoromethyl)-L-prolyl]-4-methyl-4,7-diazaspiro[2.5]octane]",≥ 50
12,"CC[C@@H]1CC[C@@H](C(=O)N2C[C@@H](C)NC3(CC3)C2)N1C(=O)C1=C(C(C)C)N2C(=N[C@@](C)(c3ccc(Cl)nc3)[C@H]2c2ccc(Cl)c(F)c2)S1 [Example 55, (5R)-7-[(5R)-1-{[(5R,6S)-5-(4-chloro-3-fluorophenyl)-6-(6-chloropyridin-3-yl)-3-isopropyl-6-methyl-5,6-dihydroimidazo[2,1-b][1,3]thiazol-2-yl]carbonyl}-5-ethyl-L-prolyl]-5-methyl-4,7-diazaspiro[2.5]octane]",≥ 50
13,"CCN(C(=O)C1=C(C(C)C)N2C(=N[C@@](C)(c3ccc(Cl)nc3)[C@H]2c2ccc(Cl)c(F)c2)S1)C1(C(=O)N2CCNC3(CC3)C2)CC1 [Example 53, (5R,6S)-5-(4-chloro-3-fluorophenyl)-6-(6-chloropyridin-3-yl)-N-[1-(4,7-diazaspiro[2.5]oct-7-ylcarbonyl)cyclopropyl]-N-ethyl-3-isopropyl-6-methyl-5,6-dihydroimidazo[2,1-b][1,3]thiazole-2-carboxamide]",≥ 50
14,"CC(C)C1=C(C(=O)N2[C@H](C)CC[C@H]2C(=O)N2C[C@@H](C)NC3(CC3)C2)SC2=N[C@@](C)(c3ccc(Cl)nc3)[C@@H](c3ccc(Cl)c(F)c3)N21 [Example 17, (5R)-7-[(5R)-1-{ [(5R,6S)-5-(4-chloro-3-fluorophenyl)-6-(6-chloropyridin-3-yl)-3-isopropyl-6-methyl-5,6-dihydroimidazo[2,1-b][1,3]thiazol-2-yl]carbonyl}-5-methyl-L-prolyl]-5-methyl-4,7-diazaspiro[2.5]octane]",≥ 50
15,"CC[C@@H]1CC[C@@H](C(=O)N2CCN(C)C3(CC3)C2)N1C(=O)C1=C(C(C)C)N2C(=N[C@@](C)(c3ccc(Cl)nc3)[C@H]2c2ccc(Cl)c(F)c2)S1 [Example 33, 7-[(5R)-1-{[(5R,6S)-5-(4-chloro-3-fluorophenyl)-6-(6-chloropyridin-3-yl)-3-isopropyl-6-methyl-5,6-dihydroimidazo[2,1-b][1,3]thiazol-2-yl]carbonyl}-5-ethyl-L-prolyl]-4-methyl-4,7-diazaspiro[2.5]octane]",≥ 50
16,"CCOc1ccc([C@]2(C)N=C3SC(C(=O)N4[C@H](C)CC[C@H]4C(=O)N4CCNC5(CC5)C4)=C(C(C)C)N3[C@@H]2c2ccc(Cl)c(F)c2)cn1 [Example 73, 7-[(5R)-1-{[(5R,6S)-5-(4-chloro-3-fluorophenyl)-6-(6-ethoxypyridin-3-yl)-3-isopropyl-6-methyl-5,6-dihydroimidazo [2,1-b] [1,3]-thiazol-2-yl]-carbonyl}-5-methyl-L-prolyl]-4,7-diazaspiro[2.5]octane]",≥ 50
17,"CC(C)C1=C(C(=O)N2CCC[C@H]2C(=O)N2CC3(CC3)NC[C@H]2C)SC2=N[C@@](C)(c3ccc(Cl)nc3)[C@@H](c3ccc(Cl)c(F)c3)N21 [Example 64, (6R)-7-(1-{[(5R,6S)-5-(4-chloro-3-fluorophenyl)-6-(6-chloropyridin-3-yl)-3-isopropyl-6-methyl-5,6-dihydroimidazo[2,1-b][1,3]thiazol-2-yl]carbonyl}-L-prolyl)-6-methyl-4,7-diazaspiro[2.5]octane]",≥ 50
18,"CC(C)C1=C(C(=O)N2C[C@@H]3C[C@@H]3[C@H]2C(=O)N2CC3(CC3)NC[C@@H]2C)SC2=N[C@@](C)(c3ccc(Cl)nc3)[C@@H](c3ccc(Cl)c(F)c3)N21 [Example 69, (65)-7-{[(1S,25,5R)-3-{[(5R,65)-5-(4-chloro-3-fluorophenyl)-6-(6-chloropyridin-3-yl)-3-isopropyl-6-methyl-5,6-dihydroimidazo[2,1-b][1,3]thiazol-2-yl]carbonyl}-3-azabicyclo[3.1.0]hex-2-yl]carbonyl}-6-methyl-4,7-diazaspiro[2.5]octane]",≥ 50

# Source: patent EP2298778A1, “IMIDAZOTHIAZOLE DERIVATIVE HAVING 4,7-DIAZASPIROÝ2.5¨OCTANE RING STRUCTURE” (Daiichi Sankyo Company, Limited, priority 2008, dated 2009)
